This is an account of results in US20180243289A1, “[…] COMPOUNDS FOR TREATING AGITATION” (Concert Pharmaceuticals, Inc., priority 2015, published 2018).

Series [1] deals with T1, CYP2D6 (Homo sapiens, UniProt P10635).
T1 construct: purchased GenTest (Woburn, Mass., USA)
The series is described as follows: Metabolic stability in CYP2D6 SUPERSOMES
Type of series: in vitro ADME. The following applies: recombinant CYP2D6 SUPERSOMES, 50 pmol/mL CYP2D6 SUPERSOMES, 1 μM test compound, 2 mM NADPH, pH 7.4, 37° C., 0-30 min, read-out: t1/2 ± SD, calculated half-life in SUPERSOMES
Here is the method:
Human CYP2D6 SUPERSOMES™ were purchased from GenTest (Woburn, Mass., USA). 7.5 mM stock solutions of test compounds (Compounds 100, 102, and the ethyl ether analog of dextromethorphan (“dextroethorphan”) were prepared in DMSO. The 7.5 mM stock solutions were diluted to 50 μM in acetonitrile (ACN). The 1000 pmol/mL CYP2D6 supersomes were diluted to 62.5 pmol/mL in 0.1 M potassium phosphate buffer, pH 7.4, containing 3 mM MgCl2. The diluted SUPERSOMES™ were added to wells of a 96-well deep-well polypropylene plate in triplicate. 10 μL of the 50 μM test compound was added to the supersomes and the mixture was pre-warmed for 10 minutes. Reactions were initiated by addition of pre-warmed NADPH solution. The final reaction volume was 0.5 mL and contained 50 pmol/mL CYP2D6 SUPERSOMES™, 1 μM test compound, and 2 mM NADPH in 0.1 M potassium phosphate buffer, pH 7.4, and 3 mM MgCl2. The reaction mixtures were incubated at 37° C. and 50 μL aliquots were removed at 0, 5, 10, 20, and 30 minutes and added to shallow-well 96-well plates which contained 50 μL of ice-cold ACN with internal standard to stop the reactions. The plates were stored at 4° C. for 20 minutes after which 100 μL of water was added to the wells of the plate before centrifugation to pellet precipitated proteins. Supernatants were transferred to another 96-well plate and analyzed for amounts of parent remaining by LC-MS/MS using an Applied Bio-systems API 4000 mass spectrometer.
The in vitro half-life (t1/2) for each of the test compounds was calculated from the slopes of the linear regression of % parent remaining (ln) vs incubation time relationship: in vitro t1/2=0.693/k, where k=−[slope of linear regression of % parent remaining (ln) vs incubation time]. Data analysis was performed using Microsoft Excel Software.

Series [2] is described as follows: Metabolic stability using human liver microsomes. As to conditions: for half-life at 1 μM / Change over non-deuterated compound (Table 3): Table 3 experiment; for half-life at 1 μM: read-out: t1/2 ± SD, calculated half-life in human liver microsomes (Table 3); for Change over non-deuterated compound (Table 3): change of half-life in human liver microsomes vs dextroethorphan. Type of series: in vitro ADME. Here is the method:
Human liver microsomes (20 mg/mL) were obtained from Xenotech, LLC (Lenexa, Kans.). β-nicotinamide adenine dinucleotide phosphate, reduced form (NADPH), magnesium chloride (MgCl2), and dimethyl sulfoxide (DMSO) were purchased from Sigma-Aldrich.
7.5 mM stock solutions of test compounds were prepared in DMSO. The 7.5 mM stock solutions were diluted to 50 μM in acetonitrile (ACN). The 20 mg/mL human liver microsomes were diluted to 1.25 mg/mL (1 mg/mL final) in 0.1 M potassium phosphate buffer, pH 7.4, containing 3 mM MgCl2. The diluted microsomes (375 μL) were added to wells of a 96-well polypropylene plate in triplicate. 10 μL of the 50 μM test compound was added to the microsomes and the mixture was pre-warmed for 10 minutes. Reactions were initiated by addition of 125 μL of pre-warmed NADPH solution. The final reaction volume was 0.5 mL and contained 1.0 mg/mL human liver microsomes, 1 μM test compound, and 2 mM NADPH in 0.1 M potassium phosphate buffer, pH 7.4, and 3 mM MgCl2. The reaction mixtures were incubated at 37° C., and 50 μL aliquots were removed at 0, 5, 10, 20, and 30 minutes and added to shallow 96-well plates which contained 50 μL of ice-cold ACN with internal standard to stop the reactions. The plates were stored at 4° C. for 20 minutes after which 100 μL of water was added to the wells of the plate before centrifugation to pellet precipitated proteins. Supernatants were transferred to another 96-well plate and analyzed for amounts of parent remaining by LC-MS/MS using an Applied Bio-systems API 4000 mass spectrometer. 7-ethoxy coumarin was used as a positive control.
The in vitro t1/2s for test compounds were calculated from the slopes of the linear regression of % parent remaining (ln) vs incubation time relationship:
in vitro t1/2=0.693/k, where k=−[slope of linear regression of % parent remaining(ln) vs incubation time]
Data analysis was performed using Microsoft Excel Software.

The mark [3] stands for this setting: 1.0 mg/mL human liver microsomes, 1 μM test compound, 2 mM NADPH, pH 7.4, 37° C.

Counter-ions that a name gives are not always drawn.

T1 sequence (P10635 whole entry): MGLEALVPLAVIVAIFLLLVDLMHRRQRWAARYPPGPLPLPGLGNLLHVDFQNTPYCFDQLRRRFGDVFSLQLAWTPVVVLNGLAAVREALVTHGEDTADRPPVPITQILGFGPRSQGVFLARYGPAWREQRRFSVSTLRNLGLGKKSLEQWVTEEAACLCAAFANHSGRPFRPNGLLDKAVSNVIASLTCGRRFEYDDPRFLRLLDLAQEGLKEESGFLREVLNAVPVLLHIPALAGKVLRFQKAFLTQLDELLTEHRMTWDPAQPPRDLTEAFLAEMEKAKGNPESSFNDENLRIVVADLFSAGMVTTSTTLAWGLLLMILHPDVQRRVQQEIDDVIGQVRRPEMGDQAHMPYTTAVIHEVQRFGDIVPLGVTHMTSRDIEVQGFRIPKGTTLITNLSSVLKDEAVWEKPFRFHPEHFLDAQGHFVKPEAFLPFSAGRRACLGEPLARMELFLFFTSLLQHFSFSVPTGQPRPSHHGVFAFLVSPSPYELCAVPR

On to `[2H]C([2H])([2H])N1CC[C@@]23CCCC[C@@H]2[C@@H]1Cc1ccc(OC([2H])([2H])C([2H])([2H])[2H])cc13` [Compound 100, (+)-3-(Ethoxy-d5)-17-(methyl-d3)-(9α,13α,14α)-morphinan hydrochloride], for which the values for the half-life at 1 μM in series [1] and in series [2] (setting [3]) were 51.3 ± 3.7 min and 59.2 ± 1.7 min, respectively. In addition, the “Change over non-deuterated compound (Table 3)” value in series [2] turned out to be 109%.

Regarding `[2H]C([2H])([2H])C([2H])([2H])Oc1ccc2c(c1)[C@]13CCCC[C@@H]1[C@H](C2)N(C)CC3` [Compound 104, (+)-3-(Ethoxy-d5)-17-methyl-(9α,13α,14α)-morphinan hydrochloride], the half-life at 1 μM in series [1] was 49.1 ± 4.1 min; in series [2] (setting [3]), 59.1 ± 2.2 min. Further, the “Change over non-deuterated compound (Table 3)” value in series [2] was 109%.

On to `COc1ccc2c(c1)[C@]13CCCC[C@@H]1[C@H](C2)N(C)CC3` [Dextromethorphan, (+)-3-methoxy-17-methyl-(9α,13α,14α)-morphinan, reference compound], for which the half-life at 1 μM in series [1] was 1.7 ± 0.3 min.

Take `CCOc1ccc2c(c1)[C@@]13CCCC[C@H]1[C@@H](C2)N(C)CC3` [Dextroethorphan, (+)-3-ethoxy-17-methylmorphinan, reference compound]: the half-life at 1 μM was 10.3 ± 2.1 min in series [1] and 28.3 ± 0.6 min in series [2] (setting [3]). In addition, the “t1/2 ± SD, calculated half-life in human liver microsomes (Table 4)” value in series [2] (1.0 mg/mL human liver microsomes, 1 μM test compound, 2 mM NADPH, pH 7.4, 37° C., Table 4 experiment) was 37.1 ± 5.6 min.
